According to ChEMBL document CHEMBL3769397, “A new GLP-1 analogue with prolonged glucose-lowering activity in vivo via backbone-based modification at the N-terminus” (Bioorg Med Chem, 2016):
pEC50: −log10 of the molar value.

Columns and labels:
[1] = target: Glucagon-like peptide 1 receptor (Homo sapiens, UniProt P43220); test: Activation of human GLP1R expressed in HEK293 cells preincubated for 30 mins followed by addition of cAMP-d2 conjugate/cryptate conjugate incubated for 60 mins by fluorescence analysis; type: functional, cell-based
[2] = target: T1, DPP4 (dipeptidyl peptidase 4) (Homo sapiens, UniProt P27487); test: Half life of compound assessed as recombinant human DPP4-mediated cleavage by RP-HPLC analysis; type: ADME
[3] = Retention time of compound over 30 mins by HPLC analysis; type: physicochemical; settings: 0.5 h
Mus musculus [4] = test: Reduction in blood glucose in Kunming mouse assessed as blood glucose level at 25 nmol/kg, ip at administered 0 mins followed by first glucose challenge at 40 mins followed by second glucose challenge at 310 mins and measured at 40 mins by glucose tolerance test (reference value: 4.9 to 6.3 mmol/L); type: functional
[5] = target: T1, DPP4 (dipeptidyl peptidase 4); test: Drug degradation assessed as recombinant human DPP4-mediated cleavage by measuring compound remaining after 12 hrs by RP-HPLC analysis; type: ADME; settings: read-out: Stability
[6] = target: T1, DPP4 (dipeptidyl peptidase 4); test: Drug degradation assessed as recombinant human DPP4-mediated cleavage by measuring compound remaining after 24 hrs by RP-HPLC analysis; type: ADME; settings: read-out: Stability
[7] = target: T1, DPP4 (dipeptidyl peptidase 4); test: Drug degradation assessed as recombinant human DPP4-mediated cleavage by measuring compound remaining after 48 hrs by RP-HPLC analysis; type: ADME; settings: read-out: Stability
[8] = target: T1, DPP4 (dipeptidyl peptidase 4); test: Drug degradation assessed as recombinant human DPP4-mediated cleavage by measuring compound remaining after 72 hrs by RP-HPLC analysis; type: ADME; settings: read-out: Stability
[9] = target: T1, DPP4 (dipeptidyl peptidase 4); test: Drug degradation assessed as recombinant human DPP4-mediated cleavage by measuring compound remaining after 96 hrs by RP-HPLC analysis; type: ADME; settings: read-out: Stability
Mus musculus [10] = test: Reduction in blood glucose in Kunming mouse assessed as blood glucose level at 25 nmol/kg, ip at administered 0 mins followed by first glucose challenge at 40 mins followed by second glucose challenge at 310 mins and measured at 385 mins by glucose tolerance test (reference value: 4.9 to 6.3 mmol/L); type: functional
Mus musculus [11] = test: Reduction in blood glucose in Kunming mouse assessed as blood glucose level at 25 nmol/kg, ip at administered 0 mins followed by first glucose challenge at 40 mins followed by second glucose challenge at 310 mins and measured at 350 mins by glucose tolerance test (reference value: 4.9 to 6.3 mmol/L); type: functional
Mus musculus [12] = test: Reduction in blood glucose in Kunming mouse assessed as blood glucose level at 25 nmol/kg, ip at administered 0 mins followed by first glucose challenge at 40 mins followed by second glucose challenge at 310 mins and measured at 55 mins by glucose tolerance test (reference value: 4.9 to 6.3 mmol/L); type: functional
Mus musculus [13] = test: Reduction in blood glucose in Kunming mouse assessed as blood glucose level at 25 nmol/kg, ip at administered 0 mins followed by first glucose challenge at 40 mins followed by second glucose challenge at 310 mins and measured at 80 mins by glucose tolerance test (reference value: 4.9 to 6.3 mmol/L); type: functional
Mus musculus [14] = test: Reduction in blood glucose in Kunming mouse assessed as blood glucose level at 25 nmol/kg, ip at administered 0 mins followed by first glucose challenge at 40 mins followed by second glucose challenge at 310 mins and measured at 115 mins by glucose tolerance test (reference value: 4.9 to 6.3 mmol/L); type: functional
Mus musculus [15] = test: Reduction in blood glucose in Kunming mouse assessed as blood glucose level at 25 nmol/kg, ip at administered 0 mins followed by first glucose challenge at 40 mins followed by second glucose challenge at 310 mins and measured at 160 mins by glucose tolerance test (reference value: 4.9 to 6.3 mmol/L); type: functional
Mus musculus [16] = test: Reduction in blood glucose in Kunming mouse assessed as blood glucose level at 25 nmol/kg, ip at administered 0 mins followed by first glucose challenge at 40 mins followed by second glucose challenge at 310 mins and measured at 310 mins by glucose tolerance test (reference value: 4.9 to 6.3 mmol/L); type: functional
Mus musculus [17] = test: Reduction in blood glucose in Kunming mouse assessed as blood glucose level at 25 nmol/kg, ip at administered 0 mins followed by first glucose challenge at 40 mins followed by second glucose challenge at 310 mins and measured at 325 mins by glucose tolerance test (reference value: 4.9 to 6.3 mmol/L); type: functional
Mus musculus [18] = test: Reduction in blood glucose in Kunming mouse assessed as blood glucose level at 25 nmol/kg, ip at administered 0 mins followed by first glucose challenge at 40 mins followed by second glucose challenge at 310 mins and measured at 430 mins by glucose tolerance test (reference value: 4.9 to 6.3 mmol/L); type: functional
Mus musculus [19] = test: Reduction in blood glucose in Kunming mouse assessed as blood glucose peak value at 25 nmol/kg, ip at administered 0 mins followed by first glucose challenge at 40 mins measured at 80 mins by glucose tolerance test relative to control; type: functional; parameters: scale not given: the % may be the effect or the level left
Mus musculus [20] = test: Reduction in blood glucose in Kunming mouse assessed as blood glucose peak value at 25 nmol/kg, ip at administered 0 mins followed by first glucose challenge at 40 mins followed by second glucose challenge at 310 mins and measured at 325 mins by glucose tolerance test relative to control; type: functional; parameters: scale not given: the % may be the effect or the level left
Mus musculus [21] = test: Reduction in blood glucose in Kunming mouse assessed as blood glucose AUC at 25 nmol/kg, ip at administered 0 mins followed by first glucose challenge at 40 mins measured at 80 mins by glucose tolerance test relative to control; type: functional; parameters: scale not given: the % may be the effect or the level left
Mus musculus [22] = test: Reduction in blood glucose in Kunming mouse assessed as blood glucose AUC at 25 nmol/kg, ip at administered 0 mins followed by first glucose challenge at 40 mins followed by second glucose challenge at 310 mins and measured at 325 mins by glucose tolerance test relative to control; type: functional; parameters: scale not given: the % may be the effect or the level left

T1 sequence (P27487 whole entry): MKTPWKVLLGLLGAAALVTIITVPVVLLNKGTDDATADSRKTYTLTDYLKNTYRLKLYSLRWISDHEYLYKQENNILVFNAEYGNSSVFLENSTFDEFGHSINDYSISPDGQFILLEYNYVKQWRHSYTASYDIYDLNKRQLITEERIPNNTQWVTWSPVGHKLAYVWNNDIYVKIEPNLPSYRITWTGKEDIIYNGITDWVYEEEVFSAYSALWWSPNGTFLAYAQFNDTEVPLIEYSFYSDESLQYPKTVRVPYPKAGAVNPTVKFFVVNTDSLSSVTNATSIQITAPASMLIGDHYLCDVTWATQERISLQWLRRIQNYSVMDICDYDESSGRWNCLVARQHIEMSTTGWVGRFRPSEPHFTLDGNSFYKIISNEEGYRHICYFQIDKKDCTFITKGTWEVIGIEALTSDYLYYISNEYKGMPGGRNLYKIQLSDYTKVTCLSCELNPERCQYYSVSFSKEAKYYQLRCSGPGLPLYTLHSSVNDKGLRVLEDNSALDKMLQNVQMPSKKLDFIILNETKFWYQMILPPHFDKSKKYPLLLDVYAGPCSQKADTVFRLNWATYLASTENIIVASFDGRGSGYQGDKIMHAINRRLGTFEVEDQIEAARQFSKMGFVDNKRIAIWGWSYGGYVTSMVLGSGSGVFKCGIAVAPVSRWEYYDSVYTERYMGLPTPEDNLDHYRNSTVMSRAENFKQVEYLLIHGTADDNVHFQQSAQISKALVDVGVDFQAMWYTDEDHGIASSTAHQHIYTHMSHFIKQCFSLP
Chain of Glucagon-like peptide 1 receptor (P43220 whole entry): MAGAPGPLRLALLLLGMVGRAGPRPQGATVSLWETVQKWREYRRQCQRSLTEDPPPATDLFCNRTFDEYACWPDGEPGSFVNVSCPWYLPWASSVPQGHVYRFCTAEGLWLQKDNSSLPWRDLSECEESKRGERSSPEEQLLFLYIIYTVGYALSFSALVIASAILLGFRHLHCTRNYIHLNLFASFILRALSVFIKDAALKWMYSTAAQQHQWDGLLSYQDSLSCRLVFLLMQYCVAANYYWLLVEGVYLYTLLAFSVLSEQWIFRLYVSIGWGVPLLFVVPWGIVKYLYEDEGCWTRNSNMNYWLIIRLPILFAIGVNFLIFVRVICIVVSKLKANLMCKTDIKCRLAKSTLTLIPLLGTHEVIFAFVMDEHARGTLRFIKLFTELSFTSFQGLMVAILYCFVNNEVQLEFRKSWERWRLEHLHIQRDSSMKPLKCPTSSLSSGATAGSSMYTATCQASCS

Question: With `CC[C@H](C)[C@H](NC(=O)[C@H](Cc1ccccc1)NC(=O)[C@H](CCC(=O)O)NC(=O)[C@H](CCCCN)NC(=O)[C@H](C)NC(=O)[C@H](C)NC(=O)[C@H](CCC(N)=O)NC(=O)CNC(=O)[C@H](CCC(=O)O)NC(=O)[C@H](CC(C)C)NC(=O)[C@H](Cc1ccc(O)cc1)NC(=O)[C@H](CO)NC(=O)[C@H](CO)NC(=O)[C@@H](NC(=O)[C@H](CC(=O)O)NC(=O)[C@H](CO)NC(=O)[C@@H](NC(=O)[C@H](Cc1ccccc1)NC(=O)[C@@H](NC(=O)CNC(=O)[C@H](CCC(=O)O)NC(=O)CCNC(=O)[C@@H](N)Cc1cnc[nH]1)[C@@H](C)O)[C@@H](C)O)C(C)C)C(=O)N[C@@H](C)C(=O)N[C@@H](Cc1c[nH]c2ccccc12)C(=O)N[C@@H](CC(C)C)C(=O)N[C@H](C(=O)N[C@@H](CCCCN)C(=O)NCC(=O)N[C@@H](CCCNC(=N)N)C(N)=O)C(C)C` as the molecule, how does the pEC50 [1] read?
Answer: 10.48

Question: What about the half-life [2] of the same molecule?
Answer: > 96 h

Question: What about the Retention_time [3] of the same molecule?
Answer: 13.751 min

Question: And the Activity (Mus musculus [4])?
Answer: 6.5 mmol/L

Question: And the remaining at 12 h [5]?
Answer: 100%

Question: And the remaining at 24 h [6]?
Answer: 100%

Question: What about the remaining at 48 h [7] of the same molecule?
Answer: 100%

Question: And the remaining at 72 h [8]?
Answer: 100%

Question: What about the remaining at 96 h [9] of the same molecule?
Answer: 100%

Question: What about the Activity (Mus musculus [10]) of the same molecule?
Answer: 9.8 mmol/L

Question: What about the Activity (Mus musculus [11]) of the same molecule?
Answer: 16.8 mmol/L

Question: And the Activity (Mus musculus [12])?
Answer: 12.8 mmol/L

Question: What about the Activity (Mus musculus [13]) of the same molecule?
Answer: 16 mmol/L

Question: What about the Activity (Mus musculus [14]) of the same molecule?
Answer: 11.8 mmol/L

Question: What about the Activity (Mus musculus [15]) of the same molecule?
Answer: 7.8 mmol/L

Question: And the Activity (Mus musculus [16])?
Answer: 6.3 mmol/L

Question: And the Activity (Mus musculus [17])?
Answer: 19.6 mmol/L

Question: And the Activity (Mus musculus [18])?
Answer: 6.8 mmol/L

Question: What about the Activity (Mus musculus [19]) of the same molecule?
Answer: 61%

Question: What about the Activity (Mus musculus [20]) of the same molecule?
Answer: 84%

Question: And the Activity (Mus musculus [21])?
Answer: 63%

Question: And the Activity (Mus musculus [22])?
Answer: 81%
